Legend:
[1] = tested on: RK-13; type: cell-based, rabbit
[2] = tested on: RL5; type: cell-based, rabbit
[3] = tested on: BGMK; type: cell-based, primate

Measured: effect of rapamycin on replication of myxoma virus (virus titre by foci formation on BGMK cells)

CO[C@H]1C[C@@H]2CC[C@@H](C)[C@@](O)(O2)C(=O)C(=O)N2CCCC[C@H]2C(=O)O[C@H]([C@H](C)C[C@@H]2CC[C@@H](O)[C@H](OC)C2)CC(=O)[C@H](C)/C=C(\C)[C@@H](O)[C@@H](OC)C(=O)[C@H](C)C[C@H](C)/C=C/C=C/C=C/1C [rapamycin]
no effect: [1] | [2] | [3]

Reference: patent US9987315B2 (priority 2005, dated 2018)
